The results in this text go back to patent US9169482B2, “Method for synthesizing cDNA” (TAKARA BIO INC., priority 2010, dated 2015).

This experiment concerns the target T1, DNaseI (Bos taurus, UniProt P00639).
T1 construct: purchased TAKARA BIO INC
Kind of experiment: Degradation of mouse genomic DNA with DNaseI in reaction solutions of Table 3, agarose gel electrophoresis (Example 2). The format is biochemical. Conditions: 5 U DNaseI, 200 ng mouse genomic DNA. On the procedure:
In order to construct a reaction composition completely inhibiting endoDNase activity, six kinds of 20 μL-reaction solutions (Reaction Solutions 1 to 6) containing 5 U DNaseI (TAKARA BIO INC.), 200 ng mouse genomic DNA, and the components as listed in Table 3 were prepared. In addition, six kinds of 20 μL-reaction solutions having the same compositions except that DNaseI was not contained were prepared. These reaction solutions were incubated at 37° C. for 15 minutes, and thereafter incubated at 85° C. for 5 seconds. Next, each of the reaction solutions was subjected to agarose gel electrophoresis, thereby confirming degradation of mouse genomic DNA with DNaseI.
It could be confirmed from this matter that DNaseI activity was inhibited in Reaction Solutions 3 and 4. […] It is shown from this matter that adjustment of the Mg concentration can further inhibit DNaseI activity other than the addition of KCl and (NH4)2SO4 or an increase in the DTT concentration.

T1 sequence (P00639 23-282): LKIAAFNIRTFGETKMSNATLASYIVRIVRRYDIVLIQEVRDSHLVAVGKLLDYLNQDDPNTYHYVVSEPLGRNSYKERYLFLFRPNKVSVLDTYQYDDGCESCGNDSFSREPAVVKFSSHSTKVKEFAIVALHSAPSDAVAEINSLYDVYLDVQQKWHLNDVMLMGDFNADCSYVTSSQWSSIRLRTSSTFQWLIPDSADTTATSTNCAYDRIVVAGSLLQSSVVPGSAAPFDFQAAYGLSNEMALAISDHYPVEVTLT

`N.N.O=S(=O)(O)O` [(NH4)2SO4, ammonium sulfate]: the “Inhibition of DNaseI activity” value was “inhibited DNaseI activity in a concentration-dependent manner”.
